Test results published in patent US6710075B2, “Therapeutic compounds and methods” (The Government of the State of Sarawak, Malaysia, priority 2000, dated 2004).
Where two headings read alike, the source gives them in different places.

Key:
[1] = test system: A549 cells; assay: DNA synthesis, [14C]-thymidine uptake, A549 cells; type: cell-based, human; settings: Homo sapiens, A549, 72 h
From the text: (a) Compounds A and B were identified from a bark sample of Aglaia leptantha through their ability to inhibit production of Tumour Necrosis Factor-α (TNF-α) by THP-1 human promonocytic leukemia cells (Tsuchiya, et al, Int. J. Cancer, 1980, 26(2):171-6) activated with lipopolysaccharide (LPS). Table 4 summarises the results comparing the activity of Compounds A and B for inhibition of TNF-α production to their effects on general cell metabolism measured using WST-1 reduction, DNA synthesis and protein synthesis assays for THP-1 cells. […] For comparison, the effects of Compounds A and B on A549 lung epithelial carcinoma cells (Leiber et al, Int. J. Cancer, 1976, 17(1)-62-70) were also measured and the data is also included in Table 4.

[2] = test system: A549; assay: Cytostatic activity, relative cell number by YOYO-1 DNA dye; type: cell-based, human
Protocol: (§1) (b) Compound A was assessed for cytotoxic and cytostatic activity against a panel of cell lines derived from a variety of human tumour types in addition to THP-1 and A549 cells (Table 5). These included K562 leukemic cells (Lozzio and Lozzio, 1975, Blood 45:321-34), PC3 prostate tumour cells (Kaighn et al., 1979, Invest. Urol. 17:16-23) and SF268 glioblastoma cells (Westphal et al, 1985, Biochem. Biophys. Res. Commun., 132:284-9). […] However, the cytotoxic potency of Compound A increased dramatically after 6 days of culture for the K562, A549 and SF268 cells.

[3] = test system: panel of cell lines derived from a variety of human tumour types; assay: Cytostatic activity against a panel of human tumour cell lines (summary); type: cell-based; settings: 72 h, range over the cell line panel, 3 days, read-out: GI50 values in nearly all cell lines tested
Protocol: as §1

[4] = test system: BT-549; assay: NCI in vitro anticancer drug discovery screen (sulforhodamine B); type: cell-based; settings: Homo sapiens, BT-549, breast, 48 hr
Protocol: (§2) (c) Testing of Compound A against a much larger cell line panel in the NCI in vitro anticancer screen (Table 7) confirmed the results described above. […] Consistent with the data in Table 5 the cytotoxic effects measured after 2 days of culture were more varied with LC50 values ranging from 10 nM for COLO-205 colon tumour cells to ˜90 μM for 786-0 renal tumour cells.

[5] = test system: MALME-3M; assay: as above; type: cell-based; settings: Homo sapiens, melanoma, 48 hr
Protocol: as §2

[6] = test system: MCF7; assay: as above; type: cell-based; settings: Homo sapiens, MCF7, breast, 48 hr
Protocol: as §2

[7] = test system: MDA-MB-231/ATCC; assay: as above; type: cell-based; settings: Homo sapiens, breast, 48 hr
Protocol: as §2

[8] = test system: MDA-N; assay: as above; type: cell-based; settings: Homo sapiens, breast, 48 hr
Protocol: as §2

[9] = test system: NCI-H460; assay: as above; type: cell-based; settings: Homo sapiens, NCI-H460, lung, 48 hr
Protocol: as §2

[10] = test system: OVCAR-4; assay: as above; type: cell-based; settings: Homo sapiens, OVCAR-4, ovarian, 48 hr
Protocol: as §2

[11] = test system: OVCAR-5; assay: as above; type: cell-based; settings: Homo sapiens, OVCAR-5, ovarian, 48 hr
Protocol: as §2

[12] = test system: OVCAR-8; assay: as above; type: cell-based; settings: Homo sapiens, OVCAR-8, ovarian, 48 hr
Protocol: as §2

[13] = test system: SF-268; assay: as above; type: cell-based; settings: Homo sapiens, SF-268, brain, 48 hr
Protocol: as §2

[14] = test system: SF-295; assay: as above; type: cell-based; settings: Homo sapiens, SF-295, brain, 48 hr
Protocol: as §2

[15] = test system: SK-OV-3; assay: as above; type: cell-based; settings: Homo sapiens, SK-OV-3, ovarian, 48 hr
Protocol: as §2

[16] = test system: THP-1 monocytic leukemia cells; assay: Differentiation of THP-1 leukemic cells, morphology by phase contrast microscopy; type: cell-based, human; settings: THP-1, 10 nM, prolonged exposure (4 days)
Protocol: THP-1 cells were cultured for 4 days in the presence or absence of 10 nM Compound A as indicated. Where shown cells were also treated with IFNγ (100 ng/ml) (3 days) or with PMA (0.1 μM) (4 days) in the presence or absence of Compound A. Images are of cells visualised by phase contrast microscopy (magnification×200).
This is a morphology highly characteristic of mature macrophages and similar morphological effects were observed when the cells were treated with other known inducers of macrophage differentiation including interferon-γ (IFNγ) or phorbol 12-myristate 13-acetate (PMA). To investigate this further the effects of Compound A on HL60 human promyelocytic leukemic cells (Collins, et al, Nature, 1977, 270:347-9) were examined (Table 11). This widely used cell line is well characterised as a model of human myelomonocytic differentiation (Collins, Blood, 1987, 70(5):1233-44). In this experiment monocytic differentiation was quantitated by measuring CD14 surface antigen expression by flow cytometric analysis CD14, all LPS-binding protein, is expressed on the surface of cells of the myelomonocytic lineage and is normally expressed at very low levels in undifferentiated HL60 cells (Ferrero et al., Blood, 1983, 61(1):171-9).

[17] = test system: A549 cells; assay: Reversibility of cytostatic effect in A549 cells after removal of compound; type: cell-based, human; settings: A549, 10 nM for 5 days, then 4 days without compound
Protocol: A549 cells were seeded at ˜10,000 cells/well and cultured in the presence of the indicted concentrations of Compound A or paclitaxel and the viable cell numbers determined by haemocytometer counting of trypan blue stained cells at the various times. On day 5 some of the cells were washed, resuspended in fresh medium lacking the various treatments and cultured for another 4 days prior to counting.
The reversibility of the effects of Compound A was determined. For this, A549 cells remained untreated or were cultured in the presence of various concentrations of Compound A or with paclitaxel for 5 days prior to removal of the compounds and the cells cultured for a further 4 days prior to determining cell number (FIG. 6). […] The effects of treatments which were deleterious to the cells, such as higher concentrations of Compound A or the presence of paclitaxel, were not reversed upon their removal.

[18] = read-out: LC50 (the source's name)

## COC(=O)[C@H]1[C@@H](O)[C@@]2(O)c3c(OC)cc(OC4OC(C(O)CO)COC4OC)cc3O[C@@]2(c2ccc(OC)cc2)[C@@H]1c1ccccc1 (single isomer, unassigned) [Compound A]
[1]
  IC50: 7 nM
[2]; Homo sapiens, A549, 72 h, read-out: GI50 (3 day cultures), A549, lung
  GI50: 7 nM
[2]; read-out: GI50 (3 day cultures), A549, lung
  GI50: 13 nM
[3]
  GI50: 1 to 7 nM
[4]
  GI50: < 10 nM
[4]; [18]
  CC50: 32700 nM
[5]
  GI50: < 10 nM
[5]; [18]
  CC50: 24000 nM
[6]
  GI50: < 10 nM
[6]; [18]
  CC50: 1000 nM
[7]
  GI50: < 10 nM
[7]; [18]
  CC50: 25400 nM
[8]
  GI50: < 10 nM
[8]; [18]
  CC50: 543 nM
[9]
  GI50: < 10 nM
[9]; [18]
  CC50: 38000 nM
[10]
  GI50: < 10 nM
[10]; [18]
  CC50: 11 nM
[11]
  GI50: < 10 nM
[11]; [18]
  CC50: 1000 nM
[12]
  GI50: < 10 nM
[12]; [18]
  CC50: 21900 nM
[13]
  GI50: < 10 nM
[13]; [18]
  CC50: 1000 nM
[14]
  GI50: < 10 nM
[14]; [18]
  CC50: 1230 nM
[15]
  GI50: < 10 nM
[15]; [18]
  CC50: 82200 nM
[16]
  morphology (macrophage differentiation): accumulation of cells that adhered to the plastic and exhibited numerous pseudopodia
[17]
  cell number after removal of compound: over a five-fold increase in cell number
  population doublings after removal of compound: 2-3
